Reference: patent US9079854B2 (priority 2007, dated 2015)
Entries after “also recorded” stand apart in the source; their conditions may differ. Like-named read-outs stand apart in the source and are kept apart here.

Key:
hCB2 receptor = target: T1, hCB2 receptor (Homo sapiens, UniProt P34972); experiment: CB2 functional assay, [35S]GTP-γ-S binding; assay type: biochemical
T1 construct: purchased ES-111-MG; host or cells: CHO membrane extracts

CB1 = CB1 (Homo sapiens, UniProt P21554); experiment: CB1 functional assay, [35S]GTP-γ-S binding; assay type: biochemical; design: purchased ES-110-MG; host or cells: CHO membrane extracts
Chain of CB1 (P21554 whole entry): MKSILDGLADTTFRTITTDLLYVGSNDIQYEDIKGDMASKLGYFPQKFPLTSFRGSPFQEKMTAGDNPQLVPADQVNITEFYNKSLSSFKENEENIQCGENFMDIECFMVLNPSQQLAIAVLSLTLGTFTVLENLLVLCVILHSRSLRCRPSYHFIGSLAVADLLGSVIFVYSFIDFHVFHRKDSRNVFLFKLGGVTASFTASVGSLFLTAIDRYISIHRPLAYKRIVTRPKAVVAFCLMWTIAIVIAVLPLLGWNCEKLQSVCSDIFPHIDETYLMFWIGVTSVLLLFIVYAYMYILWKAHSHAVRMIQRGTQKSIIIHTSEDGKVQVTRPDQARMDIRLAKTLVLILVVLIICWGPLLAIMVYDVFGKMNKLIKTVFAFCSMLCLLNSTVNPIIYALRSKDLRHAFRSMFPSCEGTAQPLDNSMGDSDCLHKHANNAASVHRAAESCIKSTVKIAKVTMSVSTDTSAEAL

[1] = system: Paclitaxel-induced neuropathy; experiment: Prevention of paclitaxel-induced neuropathy; assay type: in vivo, rat; settings: 15 mg/kg intraperitoneally 30 minutes prior to paclitaxel; rats
Procedure: A mixture of saline and CREMOPHOR®ELP 10% was used as vehicle for paclitaxel. It was injected at a concentration of 1.0 mg/kg intraperitoneally to the chemotherapy-treated group of rats on 4 consecutive days for a final cumulative dose of 4 mg/kg to 18 rats.
Assessment of neuropathic pain. Paw withdrawal thresholds were determined daily in both hind paws of each animal using calibrated von Frey monofilaments according to an up-down procedure. A series of von Frey filaments with exponentially incremental degrees of stiffness (0.4, 0.7, 1.2, 2.0, 3.6, 5.5, 8.5, and 15.1 g) was used to measure the 50% threshold for both hindpaw withdrawal in awake, unrestrained rats. Chaplan, S. R., Quantitative assessment of tactile allodynia in the rat paw, Journal of Neuroscience Methods, 1994, 53:55-63. […]
Group 1 of rats received paclitaxel for four days, as described immediately above in subpart (A) titled “Paclitaxel-induced Neuropathy.” In group 2, a dose of 15 mg/kg of the compound of Example 6, injected intraperitoneally was administered 30 minutes prior to the administration of paclitaxel. […] Paw withdrawal thresholds were determined daily in both hind paws of each animal using calibrated von Frey monofilaments according to an up-down procedure as described immediately above in subpart (A) titled “Paclitaxel-induced Neuropathy.” The results are shown in FIG. 14.

[2] = target: T2, human CB1 (hCB1) receptor (Homo sapiens, UniProt P21554); experiment: CB1 binding assay, competitive binding of [3H]CP 55940; design: % Inhibition of Control Specific Binding CB1: concentration or dose not given beside the values
T2 construct: expressed in transfected cells; host or cells: CHO (Chinese hamster ovary) cells, membranes
T2 sequence (P21554 whole entry): as above
Outline: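 CHO cell membranes expressing human CB1 (25 μg protein) incubated 120 min at 37 °C with 0.5 nM [3H]CP 55940 in Tris-HCl pH 7.4 buffer with MgCl2, EDTA, 0.3% BSA. Filtration and scintillation counting; compound tested at 1 μM, given as percent inhibition of control specific binding.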

exploratory behavior = experiment: Open field chamber testing; assay type: in vivo, rat; settings: 15 mg/kg i.p.; versus vehicle; scored for 60 minutes; rats
Procedure: The automated open-field chamber (Med Associates ENV-515 Test Environment, St. Albans, Vt.) 43.2×43.2×30.5 cm (L×W×H) equipped with three pairs of 16 infrared arrays that continually monitored the animal's movement was used to determine potential CNS effects of compound of Example 6 and the vehicle in naïve rats. Rats were individually tested 15 min after i.p. drug administration. The infrared beams were set 2.5 cm apart horizontally and at a height of 3 cm above the floor, with the rearing array set at 12 cm from the floor. The area in the box was divided into 4 equal quadrants (zones), with data collected within each quadrant and across quadrants (zone entries). An ambulatory movement was defined as a motion of at least 5 cm and was coded by quadrant. Vertical movements were counted when the rat moved vertically a minimum of 12 cm from the floor. Zone entries were defined as an entry into a zone (from another zone). Entry into a zone was counted when the rat was far enough into the zone to break 2 sets of photoelectric beams for the new zone beams during an ambulatory movement.

[3] = Table 7, relative to the efficacy of CP55940
[4] = Table 9, relative to the efficacy of CP 55,940

T1 sequence (P34972 whole entry): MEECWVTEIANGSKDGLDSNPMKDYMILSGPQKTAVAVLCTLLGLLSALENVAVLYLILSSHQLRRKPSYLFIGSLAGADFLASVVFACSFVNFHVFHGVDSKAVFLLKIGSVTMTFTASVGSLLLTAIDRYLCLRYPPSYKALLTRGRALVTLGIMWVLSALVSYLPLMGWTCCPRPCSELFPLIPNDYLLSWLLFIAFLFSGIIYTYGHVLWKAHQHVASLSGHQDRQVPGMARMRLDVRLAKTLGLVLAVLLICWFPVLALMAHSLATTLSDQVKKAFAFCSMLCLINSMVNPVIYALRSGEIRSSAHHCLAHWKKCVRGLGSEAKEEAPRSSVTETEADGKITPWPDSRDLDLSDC

CCCCCCN1C(=O)/C(=N\NC(=O)c2ccccc2)c2ccccc21 [Example 6, Benzoic acid [1-n-hexyl-2-oxo-1,2-dihydro-indol-3-ylidene]-hydrazide]
% Activation Average (hCB2 receptor; CB2 Functional Activity): 68.81% | Compound Activity (hCB2 receptor; CB2 Functional Activity): Agonist | EC50 (hCB2 receptor; CB2 Functional Activity, read-out: EC50 (nM) for GTP Binding): 63.4 nM | ratio EC50(CB1)/EC50(CB2) (hCB2 receptor; CB2 receptor selectivity, [35S]GTP-γ-S): 14 | EC50 (hCB2 receptor; Table 7, mean of two determinations, read-out: [35S]GTP-γ-S (hCB2) EC50 (nM ± SEM)): 63.4 ± 1.3 nM | Emax (hCB2 receptor; [3]): 68.8% | EC50 (hCB2 receptor; Table 9, mean of two determinations, read-out: [35S]GTP-γ-S hCB2 EC50 (nM ± SEM)): 63.4 ± 1.3 nM | Emax (hCB2 receptor; [4]): 68.8% | times less potent compared to the reference compound CP55,940 (hCB2 receptor; functional activity, [35S]GTP-γ-S): seven | % Activation Average (CB1; CB1 Functional Activity): 59.65% | Compound Activity (CB1; CB1 Functional Activity): Agonist | EC50 (CB1; CB1 Functional Activity, read-out: EC50 (nM) for GTP Binding): 867 nM | EC50 (CB1; Table 7, mean of two determinations, read-out: [35S]GTP-γ-S (hCB1) EC50 (nM ± SEM)): 867 ± 1.1 nM | Emax (CB1; [3]): 59.7% | EC50 (CB1; Table 9, mean of two determinations, read-out: [35S]GTP-γ-S hCB1 EC50 (nM ± SEM)): 867 ± 1.1 nM | Emax (CB1; [4]): 59.7% | development of paclitaxel-induced peripheral neuropathy (paw withdrawal threshold) [1]: prevented the development of neuropathic pain induced by paclitaxel | % Inhibition of Control Specific Binding ([2]; CB1, Test Concentration 1.0E−05 (MD)): 96% | % of Control Specific Binding 1st ([2]; CB1, Test Concentration 1.0E−05 (MD), 1st determination): 4.5% | % of Control Specific Binding 2nd ([2]; CB1, Test Concentration 1.0E−05 (MD), 2nd determination): 4.5% | % of Control Specific Binding Mean ([2]; CB1, Test Concentration 1.0E−05 (MD), mean): 4.5% | % Inhibition of Control Specific Binding CB1 ([2]; Table 3, concentration not given): 96% | inhibition at 1 µM ([2]; at 1 μM, specific binding of [3H]-CP55940, CHO membranes): 95.5% | inhibition at 10 µM ([2]; at 10 μM, specific binding of [3H]-CP55940): 95.5% | exploratory behavior in the open field (distance traveled, ambulatory time, vertical activity, zone entries) (exploratory behavior): No significant differences; also recorded: did not decrease the exploratory behavior
